By Ki is commonly meant a dissociation constant, usually derived from enzyme kinetics or from competition with a known ligand.

Calls of active or inactive are those of the source. Some results are limits rather than exact numbers.

Test [1] deals with Serine/threonine-protein kinase PLK1 (Homo sapiens, UniProt P53350). The test is classed as functional.
Test [2] has as its target Receptor tyrosine-protein kinase erbB-4 (Homo sapiens, UniProt Q15303). The test is classed as functional.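 Note: ERBB4 member of a kinome-wide kinase profiling panel.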

Sequence of Serine/threonine-protein kinase PLK1 (P53350 whole entry): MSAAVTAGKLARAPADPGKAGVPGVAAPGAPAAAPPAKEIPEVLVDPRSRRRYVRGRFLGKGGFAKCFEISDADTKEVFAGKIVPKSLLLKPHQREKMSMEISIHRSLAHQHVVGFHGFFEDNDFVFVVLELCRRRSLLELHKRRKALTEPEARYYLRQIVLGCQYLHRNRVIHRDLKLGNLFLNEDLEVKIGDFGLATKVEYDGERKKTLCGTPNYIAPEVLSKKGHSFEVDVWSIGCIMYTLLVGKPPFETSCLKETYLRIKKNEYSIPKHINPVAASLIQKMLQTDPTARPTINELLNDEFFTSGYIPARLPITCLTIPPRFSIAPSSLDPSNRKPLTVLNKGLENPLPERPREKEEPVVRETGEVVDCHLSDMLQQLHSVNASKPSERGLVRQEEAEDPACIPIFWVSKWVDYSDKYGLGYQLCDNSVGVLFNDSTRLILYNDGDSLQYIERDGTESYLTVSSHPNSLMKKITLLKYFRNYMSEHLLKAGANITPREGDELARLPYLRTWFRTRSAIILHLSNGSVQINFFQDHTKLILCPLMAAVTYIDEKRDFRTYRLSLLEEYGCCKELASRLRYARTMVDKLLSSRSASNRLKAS
Sequence of Receptor tyrosine-protein kinase erbB-4 (Q15303 whole entry): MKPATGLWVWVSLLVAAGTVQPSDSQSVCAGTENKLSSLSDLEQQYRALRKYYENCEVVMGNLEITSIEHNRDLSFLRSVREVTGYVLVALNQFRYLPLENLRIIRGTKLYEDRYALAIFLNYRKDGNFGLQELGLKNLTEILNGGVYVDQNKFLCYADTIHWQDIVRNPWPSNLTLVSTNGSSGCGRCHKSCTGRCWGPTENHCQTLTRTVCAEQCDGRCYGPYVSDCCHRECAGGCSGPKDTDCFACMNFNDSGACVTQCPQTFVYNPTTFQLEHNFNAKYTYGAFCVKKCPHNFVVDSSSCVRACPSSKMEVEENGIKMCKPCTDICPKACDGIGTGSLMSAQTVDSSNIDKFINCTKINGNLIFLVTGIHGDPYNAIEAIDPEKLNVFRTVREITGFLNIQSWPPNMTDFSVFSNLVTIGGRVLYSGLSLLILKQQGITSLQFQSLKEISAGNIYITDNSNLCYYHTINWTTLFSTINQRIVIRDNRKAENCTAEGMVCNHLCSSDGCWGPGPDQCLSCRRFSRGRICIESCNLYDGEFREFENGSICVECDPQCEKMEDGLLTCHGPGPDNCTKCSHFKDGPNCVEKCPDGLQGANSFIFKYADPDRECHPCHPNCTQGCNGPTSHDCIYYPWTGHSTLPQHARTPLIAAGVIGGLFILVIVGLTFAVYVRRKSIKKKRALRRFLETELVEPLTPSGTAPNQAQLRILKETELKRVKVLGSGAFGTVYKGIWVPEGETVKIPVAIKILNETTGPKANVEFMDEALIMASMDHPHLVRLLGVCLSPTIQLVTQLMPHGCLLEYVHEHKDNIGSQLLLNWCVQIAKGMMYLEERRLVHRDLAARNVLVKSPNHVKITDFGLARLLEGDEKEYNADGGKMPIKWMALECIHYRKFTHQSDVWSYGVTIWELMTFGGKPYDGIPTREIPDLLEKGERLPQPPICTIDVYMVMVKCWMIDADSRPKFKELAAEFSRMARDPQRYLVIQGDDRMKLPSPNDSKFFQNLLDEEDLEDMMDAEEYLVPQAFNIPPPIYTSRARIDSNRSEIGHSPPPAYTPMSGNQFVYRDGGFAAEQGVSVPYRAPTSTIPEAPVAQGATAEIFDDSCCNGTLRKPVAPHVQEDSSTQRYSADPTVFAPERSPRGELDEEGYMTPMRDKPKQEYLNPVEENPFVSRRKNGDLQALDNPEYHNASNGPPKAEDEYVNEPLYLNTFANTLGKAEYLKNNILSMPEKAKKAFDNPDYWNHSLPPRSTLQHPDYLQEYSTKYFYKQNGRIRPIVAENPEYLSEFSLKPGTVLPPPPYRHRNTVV

In the case of `Cc1n[nH]c2ccc(-c3cncc(OCC(N)Cc4ccc(Cl)c(Cl)c4)c3)cc12` (configuration not stated), the Ki is > 7.94 µM (inactive) in test [1] and > 3.98 µM (inactive) in test [2].

The values above are taken from ChEMBL document CHEMBL1201862, “PubChem BioAssay data set” (2004).
